According to paper PMC5522996, “Big conductance calcium‐activated potassium channel openers control spasticity without sedation” (British Journal of Pharmacology, 2017):

Tests used:
rats [1] = test: Reproductive toxicology in rats; assay type: in vivo, rat; details: p.o.
dogs = test: 28 day toxicology in dogs (50, 100, 200mg/kg p.o.); assay type: in vivo, dog
Experimental: (§1) Twenty‐eight day toxicology in rats and dogs for Investigational New Drug filing was performed by Charles Rivers (UK). Reproductive toxicology in rabbits was performed by Charles Rivers (Canada). Pharmacokinetic and/or toxicological doses ranged from 5 to 1000 mg·kg^−1 p.o. in Sprague Dawley male and female rats (n = 6‐26 per group), 50–200 mg·kg^−1 p.o. in male and female Beagle dogs (n = 6 per group) and 100–750 mg·kg^−1 p.o. in female New Zealand white rabbits (n = 9 per group). Results are expressed as mean ± SD.
(§2) Tissue Analysed Result of Tissue Analysis in Rats Result of Tissue Analysis in Dogs Artery, Aorta Negative Negative
(§3) Bone Marrow femur Negative Negative
(§4) Bone Marrow sternum Negative Negative
(§5) Bone, Sternum Negative Negative
(§6) Epididymus Negative Negative
(§7) Adrenal Gland Negative Negative
(§8) Mammary Grand Negative Negative
(§9) Parathyroid Gland Negative Negative
(§10) Pituitary Gland Negative Negative
(§11) Prostate Gland Negative Negative
(§12) Salivary Gland Negative Negative
(§13) Seminal Vesicle Gland Negative Negative
(§14) Gut associated lymphoid Negative Negative
(§15) Large Intestine caecum Negative Negative
(§16) Large Intestine colon Negative Negative
(§17) Large Intestine rectum Negative Negative
(§18) Mandibular Lymph Node Negative Negative
(§19) Mesenteric Lymph Node Negative Negative
(§20) Skeletal Muscle Negative Negative
(§21) Nasal Cavity Negative Negative
(§22) Sciatic Nerve Negative Negative
(§23) Oesophagus Negative Negative
Pancreas Negative Negative […]

rats [2] = test: 28 day toxicology in rats (100, 300, 1000mg/kg p.o.); assay type: in vivo, rat
Experimental: as §1, §2, §3, §4, §5, §6, §7, §8, §9, §10, §11, §12, §13, §14, §15, §16, §17, §18, §19, §20, §21, §22, §23
Pancreas Negative Negative
Small Intestine, duodenum Negative Negative
Small Intestine, Ileum Negative Negative […]
Following 28 day toxicology of feeding either: rats treated with 100mg/kg, 300mg/kg, 1000mg/kg p.o. (n-20/group) or dogs treated with 50mg/kg, 100mg/kg or 200mg/kg p.o. (n=6/group). […] Studies were performed by Charles Rivers, Ltd. However, * There was hypertrophy of the liver that was evident at high doses VSN16R was associated with liver weight (mean ± SD) increases: 11.0 ± 1.2g placebo, 11.6 ± 1.3g (300mg/kg p.o.), 16.7 ± 2.1g (1000mg/kg p.o. P<0.001 assessed using Students t test. n= 10 female rats/group) associated with liver enzyme induction, supporting enhanced VSN16R clearance in pharmacokinetic studies. […]

sst(non-selective) = test: Receptor binding profile of VSN16R; parameters: species or system human; details: 10µM VSN16R
β2 = test: Receptor binding profile of VSN16R; parameters: species or system human; details: 10µM VSN16R
[3] = tested on: spastic ABH mice with EAE; test: Spasticity: resistance to hindlimb flexion against a strain gauge
GlyR = test: Receptor binding profile of VSN16R; parameters: species or system human; details: 10µM VSN16R
TA100 = test: Bacterial reverse mutation, revertants per plate; assay type: cell-based, Salmonella typhimurium
Experimental: (§24) Strain of Organism Treatment Dose Revertants per plate
(§25) First Mutation without Metabolic Stimulation
(§26) Second Mutation without Metabolic Stimulation
(§27) VSN16R was incubated at various concentrations with either TA1535, TA1537, TA98 and TA100 strains of Salmonella typhimurium, which carry mutations in genes involved in histidine synthesis, and WP2uvvA Escherichia coli. The bacteria are spread on agar plates with limiting histidine content and incubated for 48 h. The number of histidine gene negative to positive revertants was assessed in two experiments. The results represent the mean ± SD. n=3/group. This was performed by Charles

TA98 = test: Bacterial reverse mutation, revertants per plate; assay type: cell-based, Salmonella typhimurium
Experimental: as §24, §25, §26, §27

TA1537 = test: Bacterial reverse mutation, revertants per plate; assay type: cell-based, Salmonella typhimurium
Experimental: as §24, §25, §26, §27

TA1535 = test: Bacterial reverse mutation, revertants per plate; assay type: cell-based, Salmonella typhimurium
Experimental: as §24, §25, §26, §27

hERG Kv11.1 K+ channel = biological target: T1, hERG Kv11.1 K+ channel (Homo sapiens, UniProt Q12809); test: Receptor binding profile of VSN16R; details: tested to 100 µM
T1 construct: purchased Cerep; Chantest; DiscoveRx; Multispan; MDS Pharma Services
T1 sequence (Q12809 whole entry): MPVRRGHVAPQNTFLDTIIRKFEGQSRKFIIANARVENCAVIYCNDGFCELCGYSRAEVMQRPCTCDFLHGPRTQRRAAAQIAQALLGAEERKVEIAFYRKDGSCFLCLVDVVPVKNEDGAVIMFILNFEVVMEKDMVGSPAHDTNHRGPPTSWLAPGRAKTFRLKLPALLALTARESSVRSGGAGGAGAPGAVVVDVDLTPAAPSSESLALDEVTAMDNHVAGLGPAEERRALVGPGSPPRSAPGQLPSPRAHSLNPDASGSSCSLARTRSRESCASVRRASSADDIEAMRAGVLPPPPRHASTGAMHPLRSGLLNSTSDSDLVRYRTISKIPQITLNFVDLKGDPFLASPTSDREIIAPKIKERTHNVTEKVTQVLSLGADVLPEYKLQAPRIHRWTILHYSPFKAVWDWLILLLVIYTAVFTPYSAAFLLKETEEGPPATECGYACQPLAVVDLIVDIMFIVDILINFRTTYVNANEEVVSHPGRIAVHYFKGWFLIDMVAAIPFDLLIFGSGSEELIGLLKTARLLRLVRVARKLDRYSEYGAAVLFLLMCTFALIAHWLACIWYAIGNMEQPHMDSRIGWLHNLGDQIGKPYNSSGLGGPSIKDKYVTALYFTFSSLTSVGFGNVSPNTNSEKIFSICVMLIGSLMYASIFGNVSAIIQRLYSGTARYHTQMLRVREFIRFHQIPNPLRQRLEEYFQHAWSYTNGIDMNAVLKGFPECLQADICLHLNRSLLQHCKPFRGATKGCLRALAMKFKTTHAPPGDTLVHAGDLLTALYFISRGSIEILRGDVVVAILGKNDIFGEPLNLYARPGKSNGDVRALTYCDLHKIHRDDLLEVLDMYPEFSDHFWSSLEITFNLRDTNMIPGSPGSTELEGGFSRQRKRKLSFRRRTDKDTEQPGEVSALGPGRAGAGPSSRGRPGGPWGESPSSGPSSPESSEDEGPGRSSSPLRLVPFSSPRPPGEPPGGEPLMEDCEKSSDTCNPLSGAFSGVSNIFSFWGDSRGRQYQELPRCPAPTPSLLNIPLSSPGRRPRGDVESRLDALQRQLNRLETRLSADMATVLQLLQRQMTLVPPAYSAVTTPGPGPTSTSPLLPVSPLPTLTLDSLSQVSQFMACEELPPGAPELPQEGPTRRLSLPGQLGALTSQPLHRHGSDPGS

GPR55‐deficient ABH mice = test: Spasticity in GPR55‐deficient mice; assay type: in vivo, mouse; details: 10 mg·kg^−1 i.v.
NK3 = biological target: T2, NK3 (Homo sapiens, UniProt P29371); test: Receptor binding profile of VSN16R; details: 10µM VSN16R
T2 construct: purchased Cerep; Chantest; DiscoveRx; Multispan; MDS Pharma Services
T2 sequence (P29371 whole entry): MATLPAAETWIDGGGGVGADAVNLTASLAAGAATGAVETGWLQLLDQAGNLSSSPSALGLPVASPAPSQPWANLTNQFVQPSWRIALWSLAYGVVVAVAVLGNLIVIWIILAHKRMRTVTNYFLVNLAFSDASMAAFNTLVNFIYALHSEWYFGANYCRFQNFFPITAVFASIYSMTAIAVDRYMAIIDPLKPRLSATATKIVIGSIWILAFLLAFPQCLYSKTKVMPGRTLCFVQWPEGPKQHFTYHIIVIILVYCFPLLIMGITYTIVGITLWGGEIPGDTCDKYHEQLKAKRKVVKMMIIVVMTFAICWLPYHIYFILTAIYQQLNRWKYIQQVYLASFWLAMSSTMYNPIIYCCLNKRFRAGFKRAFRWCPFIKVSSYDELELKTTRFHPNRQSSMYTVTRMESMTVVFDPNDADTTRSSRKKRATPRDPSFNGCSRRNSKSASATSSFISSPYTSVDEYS

[4] = First Mutation without Metabolic Stimulation, 17µg
[5] = First Mutation without Metabolic Stimulation, 5000µg
[6] = Second Mutation without Metabolic Stimulation, 17µg
[7] = Second Mutation without Metabolic Stimulation, 5000µg

For `C[C@H](CO)NC(=O)c1cccc(/C=C\CCCC(=O)N(C)C)c1` [VSN16R], the “Reproductive toxicology safe level” value (rats [1]) was 1000 mg·kg^−1, the “Result of Tissue Analysis in Dogs” value (dogs; dog, in vivo) was “Negative” and the NOEL (dogs; p.o., dogs) was 100 mg/kg. For the same compound, the “Histological analysis of animal tissues” value (rats [2]; both, Sprague Dawley (rat), rat, in vivo, 28 days) was “essentially no significant microscopic findings attributable to VSN16R”, the NOEL (rats [2]; p.o., rats over 28 days) was 1000 mg/kg and the Clinical signs (rats [2]; rat, in vivo) was “occasional salivation and ‘ploughing’ behaviours”. The Activity (sst(non-selective)) was “Negligible Activity”, the Activity (β2) was “Negligible Activity” and the Inhibition of spasticity ([3]; 0.5 mg·kg^−1 p.o.) was “failed to produce rapid muscular relaxation and inhibition of spasticity”. The Inhibition of spasticity ([3]; 1 mg·kg^−1 p.o.) was “significant therapeutic activity was evident within 10 min”, the Inhibition of spasticity ([3]; 5 mg·kg^−1 i.v.) was “slightly more active than VSN16S” and the Inhibition of spasticity ([3]; 5 mg·kg^−1 p.o.) was “significant therapeutic activity was evident within 10 min”. For the same compound, the “Mean group score, resistance to flexion (±SD), one mean per animal” value ([3]; 5 mg·kg^−1 p.o., 30 min) was 0.224 ± 0.067 N, the “Mean group score, resistance to flexion (±SD), one mean per animal” value ([3]; 5 mg·kg^−1 p.o., 60 min) was 0.214 ± 0.071 N and the “Therapeutic effect after repeated daily administration” value ([3]; 40 mg·kg^−1 p.o. for 7 days) was “therapeutic effect was sustained”. For the same compound, the “Drop of resistance to flexion from baseline” value ([3]; 40 mg·kg^−1 p.o., visibly spastic animals) was 17.8 ± 5.3%, the “Resistance to flexion force” value ([3]; 2 weeks after cessation of weekly treatment, mean ± SEM) was 0.157 ± 0.045 N and the “Duration of inhibition of spasticity” value ([3]; single dose of 40 mg·kg^−1 p.o.) was “over 6 h”. For the same compound, the Activity (GlyR) was “Negligible Activity”, the Revertants per plate (TA100; [4]) was 79.3 ± 7.6 and the Revertants per plate (TA100; [5]) was 79.3 ± 5.5. The Revertants per plate (TA100; [6]) was 85.7 ± 6.7, the Revertants per plate (TA100; [7]) was 99.3 ± 5.5 and the Revertants per plate (TA98; [4]) was 15.3 ± 4.7. It also gave a Revertants per plate (TA98; [5]) of 18.3 ± 7.1, a Revertants per plate (TA98; [6]) of 23.3 ± 1.2 and a Revertants per plate (TA98; [7]) of 23.7 ± 1.2. It also gave a Revertants per plate (TA1537; [4]) of 13.3 ± 1.5, a Revertants per plate (TA1537; [5]) of 7.0 ± 1.7 and a Revertants per plate (TA1537; [6]) of 12.3 ± 2.9. It also gave a Revertants per plate (TA1537; [7]) of 10.3 ± 2.9, a Revertants per plate (TA1535; [4]) of 9.0 ± 6.6 and a Revertants per plate (TA1535; [5]) of 13.7 ± 2.1. For the same compound, the Revertants per plate (TA1535; [6]) was 14.0 ± 5.6, the Revertants per plate (TA1535; [7]) was 11.3 ± 3.5 and the Activity (hERG Kv11.1 K+ channel) was “Negligible Activity”. For the same compound, the Inhibition of spasticity (GPR55‐deficient ABH mice) was “continued to inhibit spasticity” and the Activity (NK3) was “Negligible Activity”.
